Assay results as given in publication PMC4414309, “Target Modulation by a Kinase Inhibitor Engineered to Induce a Tandem Blockade of the Epidermal Growth Factor Receptor (EGFR) and c-Src: The Concept of Type III Combi-Targeting” (PLoS ONE, 2015).

Columns and labels:
4T1 cells = test: Boyden chamber invasion assay, 4T1; type: cell-based, mouse; settings: 4T1, concentration as low as 0.1 μM, 24h
Method: The invasive property of MDA-MB-231 and 4T1 cells was determined using the Boyden-chamber invasion assay. Cells suspended in serum-free media were plated (120–150,000 cells/well) onto polycarbonate transwell inserts (8 μm pore size, BD Biosciences) coated with matrigel (6%) (BD Biosciences), separating the top and bottom chambers (50 μl/filter). […] The invasive property of cells was observed 24h after treatment by fixing cells in formalin and staining with 0.1% crystal violet (Sigma-Aldrich Canada Ltd). Cells attached on the upper surface of the insert (top chamber) were removed by gently scraping away with a cotton swab, whereas those that invaded onto the lower side of the insert were observed using a microscope (Leica DM IL inverted microscope, 10X). Images of five non-overlapping fields of invading cells were captured using the Leica DFC300FX camera and quantification was done using the Scion Image Analysis (3.53.0.0) software and ImageJ 1.46r software. The results were expressed in terms of percentage of invading cells relative to control and the bar graphs represent the average of three independent experiments.

[1] = test system: NIH3T3-Her14 (EGFR transfected) cells; test: Growth inhibition, SRB assay, NIH3T3-Her14
Method: (§2) Growth inhibition was measured in cells using the sulforhodamine B (SRB) assay [48]. […] The plates were subsequently rinsed with 1% acetic acid, and allowed to dry overnight. […] The results were analyzed using GraphPad Prism 6.0 (GraphPadSoftware, Inc., San Diego, CA) and the sigmoidal dose response curve was used to determine IC50 values. Each experiment was carried out at least four times, in triplicate.

[2] = LC-MS analysis of AL776 hydrolysis in plasma in vivo; design: species or system CD-1 mice
Method: CD-1 mice were divided into groups of three and treated with 80 mg/kg of AL776, injected intraperitoneally (i.p) or intravenously (i.v). Mice were sacrificed and their plasma was collected for further analysis after 0, 5, 15 and 30 min after drug treatment. Plasma samples were extracted using twice the volume of methanol and lysed at 13,000 rpm for 30 min at 4°C. The resulting supernatant from each sample was collected, filtered and evaporated to dryness before reconstituting in 100 μL of methanol. LC-MS analyses were performed on a Synapt G2-S instrument coupled with an Acquity UPLC Class I system both from Waters. Elution rate was set at 500 μL/min using an Eclipse XDB C8, 3.5 um, 2.1 x 100 mm chromatographic column from Agilent Technologies. The experiments were performed with the following eluents: 0.1% aqueous formic acid (eluent A) and methanol (eluent B). The initial mobile phase was 30% B, which was maintained for 0.2 min at the beginning of the run. The following gradient elution was subsequently applied: 30 to 50% B from 0.2 to 4 min; 50 to 80% B from 4 to 10 min; held at 80% B from 10 to 11 min. Thereafter, eluent B was decreased to 30% in 0.2 min and held constant for up to 15 min to allow the column to equilibrate. Each sample was diluted with methanol in order to avoid detector saturation and […] aliquots of the resulting solutions were injected. Analyses were performed with the electrospray interface in positive ion mode and mass spectra acquired from m/z 100 to 1200. For accurate mass determination, Leucine Enkephalin was used as lock mass. The MassLynx software was used for instrument control, data acquisition and data processing.

phospho-EGFR (Y1068) = test: Western blot of EGFR phosphorylation in cells; type: cell-based, mouse
Method: (§1) NIH3T3-Her14 and 4T1 cells grown in 10% FBS containing media were plated (~ 1 x 10^6 cells/well) in 6-well plates and allowed to attach overnight (37°C, 5% CO2). The cells were rinsed twice with PBS twenty-four hours later and starved overnight on addition of serum-free media. Thereafter, they were treated with different doses of AL776 for 2 hours, washed with PBS (twice) and stimulated with 50 ng/ml EGF for 30 min at 37°C. Cells were washed, detached by scraping in ice-cold PBS and collected by centrifugation for 15 min at 3000 rpm. Cell pellets were re-suspended in cold lysis buffer 50 mM Tris-HCl pH 7.5; 150 mM NaCl; 1% Nonidet P-40, 1 mM EDTA; 5 mM NaF; 1 mM Na3VO4; protease inhibitor tablet (Roche Biochemicals, Laval, Canada)]. Lysates were kept on ice for 1 h and collected by centrifugation at 13,000 rpm for 20 min at 4°C. The concentration of protein was determined using the Bio-Rad protein assay kit (Bio-Rad laboratories, Hercules, CA). Equal amounts of proteins were loaded, resolved on 10% SDS-PAGE and thereafter transferred to a polyvinylidenedifluoride (PVDF) membrane (Milipore, Bedford, MA). […]

phospho-Src (Y416) = test: Western blot of c-Src phosphorylation in cells; type: cell-based, mouse
Method: as §1

[3] = test system: ERK1/2 phosphorylation in 4T1 tumours; test: Pharmacodynamics in 4T1 tumours, ERK1/2 phosphorylation; settings: i.v., AL776 40 mg/kg, gefitinib + dasatinib 20 mg/kg each
Method: Mice were implanted with 4T1 mammary tumour cells, 15 million cells/flank (suspended in 200 μL PBS), subcutaneously.
Mice were sacrificed 1h or 24h after treatment and their tumours were collected and snap frozen at -80°C for further analysis using western blots. Tumours were crushed using a mortar/pestle chilled using liquid nitrogen and lysed with RIPA buffer diluted to a 1X concentration and supplemented with 1mM PMSF (Cell Signaling Technology, USA). Western blot analysis was carried out with the tumour samples, similar to the method described earlier.

MDA-MB-231 cells = test: Growth inhibition, SRB assay, MDA-MB-231; settings: Homo sapiens, MDA-MB-231, 120 h, read-out: IC50 growth inhibition MDA-MB-231
Method: as §2

[4] = NIH3T3-Her14 and 4T1 cells, 2 h drug, EGF 50 ng/ml 30 min

In the case of `Cc1nc(Nc2ncc(C(=O)Nc3c(C)cccc3Cl)s2)cc(N2CCN(CCOC(=O)CCC(=O)OCCN(C)Cc3ccc(C(=O)Nc4ccc5ncnc(Nc6cccc(Cl)c6)c5c4)cc3)CC2)n1` [AL776], the Effect on invasion (4T1 cells) is reported as “strongly inhibited invasion”, the “Rank of growth inhibitory potency among the binary targeting molecules” value ([1]; EGFR transfectant, S2 Fig.) is reported as “most potent on the EGFR transfectant” and the IC50 ([1]; Mus musculus, 120 h, read-out: IC50 growth inhibition NIH3T3 – Her14) is reported as 180 nM. The “Growth inhibitory potency compared with gefitinib or dasatinib” value ([1]; NIH3T3-Her14 cells, 5 days) was 2–4 fold, the “Intact AL776 in plasma” value ([2]; 80 mg/kg i.p., early time points) was “no intact AL776 found in plasma” and the “Intact AL776 in plasma” value ([2]; 80 mg/kg i.v., 30 min post-administration) was “barely detectable levels”. For the same compound, the “Concentration of maximal inhibition of EGFR phosphorylation” value (phospho-EGFR (Y1068); [4]) was 1 µM, the “Concentration of robust inhibition of EGFR phosphorylation in cells” value (phospho-EGFR (Y1068); in cells) was 0.25 to 1 µM and the “Concentration of maximal inhibition of c-Src phosphorylation” value (phospho-Src (Y416); [4]) was 1 µM. For the same compound, the “Concentration of robust inhibition of c-Src phosphorylation in cells” value (phospho-Src (Y416); in cells) was 0.25 to 1 µM, the “Inhibition of ERK1/2 phosphorylation in tumours” value ([3]; 1h post-administration) was “strongly inhibited” and the “Inhibition of ERK1/2 phosphorylation in tumours” value ([3]; 24 h post-treatment) was “reversed”. It also gave an IC50 (MDA-MB-231 cells) of 50 ± 4 nM.
